Data reported in patent US20030138429A1, “Compositions and methods for inhibiting metastasis” (priority 2001, published 2003).

Legend:
Type in all cases: cell-based, human
[1] = system: 1-LN cells; assay: MMP-9 mRNA levels in 1-LN cells by RT-PCR; details: for MMP-9 EXPRESSION mRNA: Yes/No; for Relative MMP-9 mRNA levels (ratio MMP-9 mRNA/GAPDH mRNA): glycoform 0.1 μM, 24 h, versus serum-free medium alone, in words
Method: RNA Isolation—To determine changes in MMP-9 mRNA induced by Pg, 1-LN cells were grown in 48 well culture plates (1.7×10^6 cells/well) and incubated with each individual Pg 2 glycoform for 24 h at 37° C. Cell monolayers were then rinsed twice in serum-free RPMI 1640 and total RNA extracted by a single-step method, using RNeach Mini kit (Qiagen, Chatsworth, Calif.), according to the manufacturer's instructions.
Measurement of MMP-9 mRNA Levels by Reverse Transcription-PCR (RT-PCR)—Total RNA was reverse transcribed with 1 μg of RNA in a 20 μl reaction mixture, using M-MLV reverse transcriptase (200 U) and oligo d(T) as primer for 1 h at 42° C. The resulting cDNA (5 μl) was used as a template and a […] segment of the MMP-9 cDNA was amplified, using a 24-mer upstream primer (5′-[…]-3′), identical to positions 2079-2102 and a 29-mer downstream primer (5′-[…]-3′) complimentary to positions 2270-2298 of the human MMP-9 mRNA [45]. A 600-bp segment of the glyceraldehyde phosphate dehydrogenase (GAPDH, constitutive internal control) cDNA was co-amplified, using a 24-mer upstream primer (5′-[…]), identical to positions 212-235 and a 24-mer downstream primer (5′-[…]-3′), complimentary to positions 786-809 of the human GAPDH mRNA [46]. Amplification was carried out in a Techne Thermal Cycler PHC-3 for 28 cycles (one cycle=94° C. for 45 s, 60° C. for 45 s, and 72° C. for 45 s). PCR products were analyzed on a 1.2% agarose-ethidium bromide gel. The gels were photographed and the intensity of the individual MMP-9 and GAPDH mRNA bands measured by laser densitometric scanning, using a Molecular Dynamics Personal Densitometer. Changes in MMP-9 mRNA levels were expressed as a relative ratio of MMP-9 mRNA/GAPDH mRNA band intensities.

[2] = system: 1-LN cells; assay: [Ca2+]i response of 1-LN cells (Fura-2/AM digital imaging microscopy); details: for [Ca^2+]i Increase: Yes/No; for [Ca2+]i response after binding of glycoform: glycoform 0.1 μM, in words
Method: Measurement of Intracellular Calcium Levels—Cystolic free calcium [Ca^2+]i, was measured by Digital Imaging Microscopy (DIM) using the fluorescent indicator Fura-2/AM as previously described.
[Ca^2+]i Response to Pg 2 Glycoforms Binding on the Surface of 1-LN Cells—We measured changes in [Ca^2+]i after binding of each individual Pg 2 glycoform to the surface of 1-LN cells. […] Similarly, cells were incubated at 37° C. for 1 h with anti-u-PA or anti-p IgGs (100 μg/ml) which inhibit enzymatic activity prior to addition of the highly sialylated glycoforms (Pgs 2γ, 2δ, and 2ε).

[3] = system: 1-LN cells; assay: MMP-9 activity in serum-free culture medium of 1-LN cells (quantitative gelatin zymography); details: for Active MMP-9: 24 h; for MMP-9 EXPRESSION Secretion: Yes/No
Method: Gelatin Zymography—Protein samples were electrophoresed on gelatin-containing 0.75 mm thick 10% polyacrylamide gels in the presence of SDS under nonreducing conditions. After completion of the electrophoretic run, the gels were incubated with two changes of 2.5% Triton X-100 for 1 h, followed by incubation for 18 h at 37° C. in 0.1 M glycine-NaOH, pH 8.3, containing 1 mM CaCl2, and […], before staining with Coomassie Brilliant Blue R-250 to visualize the lysis bands.
MMP-9 Activity in Solution—MMP-9 activity was measured in tissue culture supernatants by quantitative zymography using as a standard MMP-9 purified by affinity chromatography on gelatin-Sepharose from 1-LN cell conditioned medium (10 liters). Conditioned medium (50 μl), from 1-LN cell monolayers in 48 well culture plates (1.7×10^6 cells/well) incubated with Pg 2 glycoforms and/or inhibitors of Pg binding or activation, were electrophoresed on gelatin-containing gels and the degree of lysis was quantified using a Gelman ACD-15 Automatic Computing Densitometer (Gelman Instrument Company, Ann Arbor, Mich.). Values were determined by integrating the density of the selected bands and expressed in units×mm^2. Each gel was scanned three times and the average value of the integrated density of the bands was used to determine levels of MMP-9 from calibration curves constructed with purified active MMP-9 electrophoresed under the same conditions. The statistical analysis of the data was performed on an IBM 433 DX/S computer using the program SYSTAT® for Windows 95. The statistical significance of differences between means was evaluated by Student's t-test. MMP-9 was positively identified in conditioned medium by electrophoretic separation in 10% SDS-polyacrylamide gels (SDS-PAGE), electroblot of the electrophoresed proteins to nitrocellulose membranes and reaction with an anti-MMP-9 mAb (1 μg/ml) followed by reaction with a secondary alkaline phosphatase conjugated anti-mouse IgG. Detection was performed by reaction with the alkaline phosphatase substrate 5-bromo-4-chloro-3-indolyl phosphate in the presence of nitroblue tetrazolium (1 mM each) in 10 mM Tris-HCl, pH 8.5.
Effect of Pg on the Expression of MMP-9 by 1-LN Cells—Cells were seeded into 48-well culture plates and grown in RPMI 1640 containing 10% fetal bovine serum. Confluent monolayers were then incubated for 24 h with quiescent culture medium containing RPMI 1640 and 0.5% fetal bovine serum. Each individual Pg 2 glycoform (0.1 μM) was added in triplicate to cell monolayers in 300 μl of serum-free RPMI 1640 and incubated for 24 h at 37° C. Culture medium was collected to measure secretion of MMP-9 as described under Experimental Procedures. Prior to analyses of the MMP-9 secreted into the medium by 1-LN cells in the presence of individual Pg 2 glycoforms, we purified MMP-9 from conditioned medium (5 liters) by the technique of Masure et al.. […] A similar analysis of the Mr˜95,000 protein yielded the sequence APRQRQ, corresponding to the amino-terminal sequence of proMMP-9. […] We then proceeded to analyze the MMP-9 secreted into the medium by 1-LN cells incubated with each individual Pg 2 glycoform in serum-free culture medium, using the purified MMP-9 as a standard for quantification by gelatin zymography. These analyses (FIG. 7A) show a major band of active protein with a Mr˜85,000. […] Samples of these conditioned media were also subjected to SDS-PAGE under reducing conditions, electroblotted to nitrocellulose membranes and then reacted with an anti-MMP-9 mAb (FIG. 7B). […] A 4-fold decrease in the production of MMP-9 by cells co-incubated with anti-DPP IV mAb 236.3 and Pg 2ε (p<0.001) (Table II) is clearly observed in the conditioned medium (Lane 6 on FIGS. 8A and 8B, respectively).

[4] = SFM + 6-AHA (100 nM) + glycoform 0.1 μM
[5] = SFM + L-lac (100 mM) + glycoform 0.1 μM
[6] = SFM + glycoform 0.1 μM, no additive, 37° C.
[7] = SFM + DPP IV-Ab (50 μg/ml) + glycoform 0.1 μM

| Compound | MMP-9 EXPRESSION mRNA [1] | Relative MMP-9 mRNA levels (ratio MMP-9 mRNA/GAPDH mRNA) [1] | [Ca^2+]i Increase [2] | [Ca2+]i response after binding of glycoform [2] | Active MMP-9 [3, 4] [ng/mL] | Active MMP-9 [3, 5] [ng/mL] | Active MMP-9 [3, 6] [ng/mL] | MMP-9 EXPRESSION Secretion [3] | Active MMP-9 [3, 7] [ng/mL] | Stimulation of active MMP-9 secreted ([3]; compared to cells with other Pg 2 glycoforms or culture medium, p<0.001) [fold] | Active MMP-9 ([3]; SFM + additive alone, no Pg 2 glycoform) [ng/mL] | Decrease in the production of MMP-9 ([3]; cells co-incubated with Pg 2ε, L-lactose 100 mM, anti-DPP IV mAb) [fold] |
| --- | --- | --- | --- | --- | --- | --- | --- | --- | --- | --- | --- | --- |
| Pg 2β: glycoform of human plasminogen type 2 purified from plasma; 2.2 mol sialic acid/mol Pg | No | did not show a significant change | No | did not produce any changes | 0.5 ± 0.13 | 0.17 ± 0.04 | 0.59 ± 0.13 | No | – | – | – | – |
| Pg 2γ: glycoform of human plasminogen type 2 purified from plasma; 2.95 mol sialic acid/mol Pg | No | did not show a significant change | Yes | elicited a [Ca^2+]i response | 0.63 ± 0.21 | 0.15 ± 0.03 | 0.60 ± 0.17 | No | 0.58 ± 0.12 | – | – | – |
| Pg 2δ: glycoform of human plasminogen type 2 purified from plasma; 5.77 mol sialic acid/mol Pg | No | did not show a significant change | Yes | elicited a [Ca^2+]i response | 0.57 ± 0.14 | 0.18 ± 0.04 | 0.62 ± 0.18 | No | 0.56 ± 0.11 | – | – | – |
| Pg 2ε: glycoform of human plasminogen type 2 purified from plasma; 5.34 mol sialic acid/mol Pg | Yes | significant increase | Yes | elicited a [Ca^2+]i response | 1.82 ± 0.23 | 0.14 ± 0.05 | 1.80 ± 0.21 | Yes | 0.49 ± 0.14 | 3 | – | – |
| Pg 2α: glycoform of human plasminogen type 2 purified from plasma; 1.3 mol sialic acid/mol Pg | No | did not show a significant change | No | did not produce any changes | 0.59 ± 0.17 | 0.11 ± 0.02 | 0.59 ± 0.16 | No | – | – | – | – |
| OC[C@@H]1O[C@H](O[C@@H]2[C@@H](O)[C@H](O)C(O)O[C@H]2CO)[C@@H](O)[C@H](O)[C@@H]1O (stereo partly drawn) [L-lactose, reference compound] | – | – | – | – | – | – | – | – | – | – | 0.15 ± 0.03 | 12 |
| Pg 2φ: glycoform of human plasminogen type 2 purified from plasma; 13.65 mol sialic acid/mol Pg | – | – | – | No response | 0.57 ± 0.11 | 0.11 ± 0.02 | 0.63 ± 0.14 | – | – | – | – | – |
